Experimental data: US20180051284A1, “INHIBITORS OF MIR-17-92 CLUSTER FOR ANTI-TUMOR ACTIVITY IN MULTIPLE MYELOMA AND OTHER MALIGNANCIES” (priority 2014, published 2018)
l = locked nucleic acid (LNA); d = 2'-deoxy (DNA)

Key:
AMO1/abzb xenografts = assay: In vivo tumor growth of Bortezomib-refractory AMO1/abzb xenografts (IVIS); design: species or system mice; details: I.P. 2 mg/kg at day 1-4-8-15-22; Bortezomib-refractory model
From the text: Male CB-17 severe combined immunodeficient (SCID) mice (6- to 8-weeks old; Harlan Laboratories, Inc., Indianapolis) were housed and monitored in our Animal Research Facility. All experimental procedures and protocols had been approved by the Institutional Ethical Committee (Magna Graecia University) and conducted according to protocols approved by the National Directorate of Veterinary Services (Italy). In accordance with institutional guidelines, mice were sacrificed when tumors reached 2 cm in diameter or in the event of paralysis or major compromise, to prevent unnecessary suffering. Animal experimental procedures have been performed as in previous reports (Di Martino et al, CCR 2012; Di Martino el al. Oncotarget 2013, Di Martino et al PlosOne 2014). […] Mice were also inoculated with 5×10^6 luciferase gene-marked U266, AMO-1, AMO-1/abzb, treatments were performed intraperitoneally (i.p.), and tumor volume were measured by IVIS Lumina II.
In vivo anti-MM activity of LNA gapmer_06 was next evaluated in NOD/SCID mice bearing subcutaneous AMO1 xenografts. […] Tumors volume were measured using IVIS LUMINA II Imaging We next evaluate the in vivo activity in Bortezomib-refractory model of human MM. […] Tumors volume were measured using IVIS LUMINA II Imaging System.

[1] = system: Capan1, MCF7, MDA231, LXF-289, A-549, NCI-H82, 5637, BCMW.1 and MPM-209 cells; assay: CCK-8 proliferation of non-myeloma cancer cell lines after gymnotic exposure; type: cell-based, Human; details: 6 days gymnotic exposure, 0-2,5-5-10 μM
Method: Cells were seeded at low plating density in order to reach confluence on the final day of the experiments (day 6). Cell number at plating ranged from 0.5 to 2.5×10^3 in 96-well plates, from 2.5 to 10×10^3 in 12-well plates and from 1 to 3×10^4 in 6-well plates.
Cells were seeded in 100 μL (suspension cell lines) or 50 μL (adherent cell lines) of culture medium at a density ranging from 0,5 to 2,5×10^3 cells per well. Survival was evaluated by both Cell Counting Kit-8 colorimetric assay (CCK-8, Dojindo Molecular Technologies, Japan) and CellTiter-Glo Luminescent Cell Viability Assay (Promega Madison, Wis., USA). Assays were performed according to the manufacturer's instructions. The optical density (OD) was evaluated at wave length of 450 nm. Both OD and luminescence were recorded with the GloMax-multi detection system (Promega, Madison, Wis., USA).
Specifically, we gymnotically exposed for 6 days to 0-2,5-5-10 μM of gapmer_06, the following cell lines: Capan1 pancreatic cancer cells, MCF7 and MDA231 breast cancer cells, LXF-289, A-549 and NCI-H82 lung cancer cells, 5637 bladder cancer cells, BCMW.1 Waldenstrom Macroglobulinemia cells and MPM-209 mesothelioma cells.

Substance: gapmer_06: LNA/DNA gapmer, SEQ ID 4 (14 mer): +T*+A*+C*T*T*G*C*T*T*G*G*+C*+T*+T; + LNA, * phosphorothioate (antisense TACTTGCTTGGCTT; sugars from the 5' end l3 d8 l3, all phosphorothioate, methylation of C not given here)
- tumor growth (IVIS tumor volume) (AMO1/abzb xenografts): significant tumor-growth inhibition
- proliferation (CCK-8 cell growth analysis) [1]: impair proliferation of all cell lines
